Results reported in patent US6730293B1, “Compositions and methods for treating inflammatory diseases of the skin” (CellGate, Inc., priority 1999, dated 2004).
Peptide text beside a SMILES is read from it. * marks the point of attachment. FITC = O=C1OC2(c3ccc(O)cc3Oc3cc(O)ccc32)c2ccc(NC(=S)*)cc21; Ahx = NCCCCCC(=O)O

What was measured:
Jurkat cells [1] = experiment: FACS cellular uptake assay of fluorescently labeled peptides and peptoids; assay type: cell-based, human; settings: for additional loss of intracellular fluorescence from the one amino acid truncated analogs / loss of intracellular fluorescence compared to the parent sequence (Tat49-57): 15 min at 23° C.; for cellular uptake compared with Tat49-57: 23° C., 2% FCS
Description: Cellular Uptake Assay. […] The accuracy of this method for determining concentration was established by weighing selected samples and dissolving them in a known amount of PBS buffer. The concentrations determined by UV spectroscopy correlated with the amounts weighed out manually. Jurkat cells (human T cell line), murine B cells (CH27), or human PBL cells were grown in 10% fetal calf serum and DMEM and each of these were used for cellular uptake experiments. […] The microtiter plates were centrifuged and the cells were isolated, washed with cold PBS (3×250 μL), incubated with 0.05% trypsin/0.53 mM EDTA at 37° C. for 5 min, washed with cold PBS, and resuspended in PBS containing 0.1% propidium iodide. The cells were analyzed using fluorescent flow cytometry (FACScan, Becton Dickinson) and cells staining with propidium iodide were excluded from the analysis. The data presented is the mean fluorescent signal for the 5000 cells collected.
Inhibition of Cellular Uptake with Sodium Azide. The assays were performed as previously described with the exception that the cells used were preincubated for 30 min with 0.5% sodium azide in 2% FCS/PBS buffer prior to the addition of fluorescent peptides and the cells were washed with 0.5% sodium azide in PBS buffer. All of the cellular uptake assays were run in parallel in the presence and absence of sodium azide.
To determine the structural requirements for the cellular uptake of short arginine-rich peptides, a series of fluorescently-labeled truncated analogues of Tat49-57 were synthesized using standard solid-phase chemistry. See, e.g., Atherton, E.et al. SOLID-PHASE PEPTIDE […] (IRL: Oxford, Engl. 1989). A fluorescein moiety was attached via an aminohexanoic acid spacer on the amino termini. The ability of these fluorescently labeled peptides to enter Jurkat cells was then analyzed using fluorescent activated cell sorting (FACS) ( ). The peptide constructs tested were Tat49-57 (Fl-ahx-[…]): Tat49-56 (Fl-ahx-[…]), Tat49-55 (Fl-ahx-RKKRRQR), Tat50-57 (Fl-ahx-[…]), and […] (Fl-ahx-KRRQRRR). Differentiation between cell surface binding and internalization was accomplished throughout by running a parallel set of assays in the presence and absence of sodium azide. Because sodium azide inhibits energy-dependent cellular uptake but not cell surface binding, the difference in fluorescence between the two assays provided the amount of fluorescence resulting from internalization.

Jurkat cells [2] = experiment: Cellular uptake kinetics assay (Michaelis-Menton); assay type: cell-based, human; settings: for Vmax: Jurkat cells, 30, 60, 120, 240 seconds; for Km values, fold greater than that found for Tat49-57: discussion; for rate of cell entry, fold faster than Tat47-59: from Km values
Description: Cellular Uptake Kinetics Assay. […] The reactions were quenched by diluting the samples into 2% FCS/PBS (5 mL). The assays were then worked up and analyzed by fluorescent flow cytometry as previously described.

skin of nude mice = experiment: Penetration of taxol-biotinylated D-arginine conjugates into skin of nude mice; assay type: in vivo; settings: back of nude mice, 1 mM-100 μM in PBS, 30, 60, 120 minutes
Description: Slides were analyzed by fluorescent microscopy.

Structure (SMILES): N=C(N)NCCC[C@@H](NC(=O)[C@@H](CCCNC(=N)N)NC(=O)[C@@H](CCCNC(=N)N)NC(=O)[C@@H](CCCNC(=N)N)NC(=O)[C@@H](CCCNC(=N)N)NC(=O)[C@@H](CCCNC(=N)N)NC(=O)[C@@H](CCCNC(=N)N)NC(=O)[C@@H](CCCNC(=N)N)NC(=O)[C@@H](CCCNC(=N)N)NC(=O)CCCCCNC(=S)Nc1ccc2c(c1)C(=O)OC21c2ccc(O)cc2Oc2cc(O)ccc21)C(N)=O (single isomer, unassigned) [R9]
- cellular uptake of peptoids compared with d-arginine oligomers / other peptoids (Jurkat cells [1]; 4 min at 23° C.): comparable to N-btg9
- relative order of uptake (Jurkat cells [1]; 4 min at 23° C.): N-hxg9 (6 methylene)>N-btg9 (4 methylene)>r9 (3 methylene)>N-arg9 (3 methylene)>N-etg9 (2 methylene)
- Vmax (Jurkat cells [2]): 0.38
- Km values, fold greater than that found for Tat49-57 (Jurkat cells [2]): 30 fold
- Km values, fold greater than that found for Tat49-57 (Jurkat cells [2]; listed as r9): 100 fold
- rate of cell entry, fold faster than Tat47-59 (Jurkat cells [2]): ~20 fold

Structure (SMILES): C[C@H](NC(=O)[C@H](CCCNC(=N)N)NC(=O)[C@H](CCCNC(=N)N)NC(=O)[C@H](CCCCN)NC(=O)[C@H](CCCCN)NC(=O)[C@H](CCCNC(=N)N)NC(=O)CCCCCNC(=S)Nc1ccc2c(c1)C(=O)OC21c2ccc(O)cc2Oc2cc(O)ccc21)C(=O)N[C@@H](CCCNC(=N)N)C(=O)N[C@@H](CCCNC(=N)N)C(=O)N[C@@H](CCCNC(=N)N)C(N)=O [A-54] ({FITC-Ahx}-RKKRRARRR-NH2)
- loss of cellular uptake on alanine substitution of Tat49-57 (Jurkat cells [1]; 12 min at 23° C.): modest decrease

Structure (SMILES): CC[C@H](C)[C@H](NC(=O)[C@H](CCCCN)NC(=O)[C@@H](NC(=O)[C@H](CCC(N)=O)NC(=O)[C@H](CCCNC(=N)N)NC(=O)CCCCCNC(=S)Nc1ccc2c(c1)C(=O)OC21c2ccc(O)cc2Oc2cc(O)ccc21)[C@@H](C)CC)C(=O)N[C@@H](Cc1c[nH]c2ccccc12)C(=O)N[C@@H](Cc1ccccc1)C(=O)N[C@@H](CCC(N)=O)C(=O)N[C@@H](CC(N)=O)C(=O)N[C@@H](CCCNC(=N)N)C(=O)N[C@@H](CCCNC(=N)N)C(=O)N[C@@H](CCSC)C(=O)N[C@@H](CCCCN)C(=O)N[C@@H](Cc1c[nH]c2ccccc12)C(=O)N[C@@H](CCCCN)C(=O)N[C@@H](CCCCN)C(N)=O [Antennapedia43-58, reference compound]
- Vmax (Jurkat cells [2]): 0.41
- rate of cell entry, fold faster than Tat47-59 (Jurkat cells [2]): approximately 2 fold

Structure (SMILES): CC(=O)O[C@H]1C(=O)[C@@]2(C)[C@H]([C@H](OC(=O)c3ccccc3)[C@]3(O)C[C@H](OC(=O)[C@H](OC(=O)NCCCC[C@H](NC(=O)[C@@H](CCCNC(=N)N)NC(=O)[C@@H](CCCNC(=N)N)NC(=O)[C@@H](CCCNC(=N)N)NC(=O)[C@@H](CCCNC(=N)N)NC(=O)[C@@H](CCCNC(=N)N)NC(=O)CCCCCNC(=O)CCCC[C@@H]4SC[C@@H]5NC(=O)N[C@@H]54)C(N)=O)[C@@H](NC(=O)c4ccccc4)c4ccccc4)C(C)=C1C3(C)C)[C@]1(OC(C)=O)CO[C@@H]1C[C@@H]2O [B-aca-r5-K-taxol]
- penetration into skin (fluorescent streptavidin staining) (skin of nude mice): very little uptake

Structure (SMILES): CC(=O)O[C@H]1C(=O)[C@@]2(C)[C@H]([C@H](OC(=O)c3ccccc3)[C@]3(O)C[C@H](OC(=O)[C@H](OC(=O)NCCCC[C@H](NC(=O)[C@@H](CCCNC(=N)N)NC(=O)[C@@H](CCCNC(=N)N)NC(=O)[C@@H](CCCNC(=N)N)NC(=O)[C@@H](CCCNC(=N)N)NC(=O)[C@@H](CCCNC(=N)N)NC(=O)[C@@H](CCCNC(=N)N)NC(=O)[C@@H](CCCNC(=N)N)NC(=O)CCCCCNC(=O)CCCC[C@@H]4SC[C@@H]5NC(=O)N[C@@H]54)C(N)=O)[C@@H](NC(=O)c4ccccc4)c4ccccc4)C(C)=C1C3(C)C)[C@]1(OC(C)=O)CO[C@@H]1C[C@@H]2O [B-aca-r7-K-taxol]
- penetration into skin (fluorescent streptavidin staining) (skin of nude mice): effectively entered into and across the epidermis and into the dermis

Structure (SMILES): CC(=O)O[C@H]1C(=O)[C@@]2(C)[C@H]([C@H](OC(=O)c3ccccc3)[C@]3(O)C[C@H](OC(=O)[C@H](OC(=O)NCCCC[C@H](NC(=O)[C@@H](CCCNC(=N)N)NC(=O)[C@@H](CCCNC(=N)N)NC(=O)[C@@H](CCCNC(=N)N)NC(=O)[C@@H](CCCNC(=N)N)NC(=O)[C@@H](CCCNC(=N)N)NC(=O)[C@@H](CCCNC(=N)N)NC(=O)[C@@H](CCCNC(=N)N)NC(=O)[C@@H](CCCNC(=N)N)NC(=O)[C@@H](CCCNC(=N)N)NC(=O)CCCCCNC(=O)CCCC[C@@H]4SC[C@@H]5NC(=O)N[C@@H]54)C(N)=O)[C@@H](NC(=O)c4ccccc4)c4ccccc4)C(C)=C1C3(C)C)[C@]1(OC(C)=O)CO[C@@H]1C[C@@H]2O [B-aca-r9-K-taxol]
- penetration into skin (fluorescent streptavidin staining) (skin of nude mice): effectively entered into and across the epidermis and into the dermis

Structure (SMILES): N=C(N)NCCC[C@H](NC(=O)[C@H](CCC(N)=O)NC(=O)[C@H](CCCNC(=N)N)NC(=O)[C@H](CCCNC(=N)N)NC(=O)[C@H](CCCCN)NC(=O)[C@H](CCCCN)NC(=O)[C@H](CCCNC(=N)N)NC(=O)CCCCCNC(=S)Nc1ccc2c(c1)C(=O)OC21c2ccc(O)cc2Oc2cc(O)ccc21)C(N)=O [Tat49-55, Fl-ahx-RKKRRQR] ({FITC-Ahx}-RKKRRQR-NH2)
- additional loss of intracellular fluorescence from the one amino acid truncated analogs (Jurkat cells [1]): 60%

Structure (SMILES): N=C(N)NCCC[C@H](NC(=O)[C@H](CCCNC(=N)N)NC(=O)[C@H](CCC(N)=O)NC(=O)[C@H](CCCNC(=N)N)NC(=O)[C@H](CCCNC(=N)N)NC(=O)[C@H](CCCCN)NC(=O)[C@H](CCCCN)NC(=O)[C@H](CCCNC(=N)N)NC(=O)CCCCCNC(=S)Nc1ccc2c(c1)C(=O)OC21c2ccc(O)cc2Oc2cc(O)ccc21)C(N)=O [Tat49-56] ({FITC-Ahx}-RKKRRQRR-NH2)
- loss of intracellular fluorescence compared to the parent sequence (Tat49-57) (Jurkat cells [1]): 80%

Structure (SMILES): N=C(N)NCCC[C@H](NC(=O)[C@H](CCCNC(=N)N)NC(=O)[C@H](CCCNC(=N)N)NC(=O)[C@H](CCC(N)=O)NC(=O)[C@H](CCCNC(=N)N)NC(=O)[C@H](CCCNC(=N)N)NC(=O)[C@H](CCCCN)NC(=O)[C@H](CCCCN)NC(=O)[C@H](CCCNC(=N)N)NC(=O)CCCCCNC(=S)Nc1ccc2c(c1)C(=O)OC21c2ccc(O)cc2Oc2cc(O)ccc21)C(N)=O [Tat49-57, reference compound]
- cellular uptake compared with Tat49-57 (Jurkat cells [1]): between that of R6 and R7
- Vmax (Jurkat cells [2]): 0.38

Structure (SMILES): N=C(N)NCCC[C@H](NC(=O)[C@H](CCCNC(=N)N)NC(=O)[C@H](CCCNC(=N)N)NC(=O)[C@H](CCC(N)=O)NC(=O)[C@H](CCCNC(=N)N)NC(=O)[C@H](CCCNC(=N)N)NC(=O)[C@H](CCCCN)NC(=O)[C@H](CCCCN)NC(=O)CCCCCNC(=S)Nc1ccc2c(c1)C(=O)OC21c2ccc(O)cc2Oc2cc(O)ccc21)C(N)=O [Tat50-57] ({FITC-Ahx}-KKRRQRRR-NH2)
- loss of intracellular fluorescence compared to the parent sequence (Tat49-57) (Jurkat cells [1]): 80%

Structure (SMILES): N=C(N)NCCC[C@H](NC(=O)[C@H](CCCNC(=N)N)NC(=O)[C@H](CCCNC(=N)N)NC(=O)[C@H](CCC(N)=O)NC(=O)[C@H](CCCNC(=N)N)NC(=O)[C@H](CCCNC(=N)N)NC(=O)[C@H](CCCCN)NC(=O)CCCCCNC(=S)Nc1ccc2c(c1)C(=O)OC21c2ccc(O)cc2Oc2cc(O)ccc21)C(N)=O [Tat51-57, Fl-ahx-KRRQRRR] ({FITC-Ahx}-KRRQRRR-NH2)
- additional loss of intracellular fluorescence from the one amino acid truncated analogs (Jurkat cells [1]): did not further diminish the amount of internalization

Structure (SMILES): N=C(N)NCCC[C@H](NC(=O)[C@H](CCCCN)NC(=O)[C@H](CCCCN)NC(=O)[C@H](CCCNC(=N)N)NC(=O)[C@H](CCCNC(=N)N)NC(=O)[C@H](CCC(N)=O)NC(=O)[C@H](CCCNC(=N)N)NC(=O)[C@H](CCCNC(=N)N)NC(=O)[C@H](CCCNC(=N)N)NC(=O)CCCCCNC(=S)Nc1ccc2c(c1)C(=O)OC21c2ccc(O)cc2Oc2cc(O)ccc21)C(N)=O [Tat57-49]
- cellular uptake compared with Tat49-57 (Jurkat cells [1]): more effective at entering Jurkat cells then Tat49-57

Structure (SMILES): N=C(N)NCCC[C@@H](NC(=O)[C@@H](CCCNC(=N)N)NC(=O)[C@@H](CCCNC(=N)N)NC(=O)[C@@H](CCC(N)=O)NC(=O)[C@@H](CCCNC(=N)N)NC(=O)[C@@H](CCCNC(=N)N)NC(=O)[C@@H](CCCCN)NC(=O)[C@@H](CCCCN)NC(=O)[C@@H](CCCNC(=N)N)NC(=O)CCCCCNC(=S)Nc1ccc2c(c1)C(=O)OC21c2ccc(O)cc2Oc2cc(O)ccc21)C(N)=O [d-Tat49-57, Fl-ahx-rkkrrqrrr]
- cellular uptake compared with Tat49-57 (Jurkat cells [1]): more effective at entering Jurkat cells then Tat49-57

Structure (SMILES): N=C(N)NCCC[C@@H](NC(=O)[C@@H](CCCCN)NC(=O)[C@@H](CCCCN)NC(=O)[C@@H](CCCNC(=N)N)NC(=O)[C@@H](CCCNC(=N)N)NC(=O)[C@@H](CCC(N)=O)NC(=O)[C@@H](CCCNC(=N)N)NC(=O)[C@@H](CCCNC(=N)N)NC(=O)[C@@H](CCCNC(=N)N)NC(=O)CCCCCNC(=S)Nc1ccc2c(c1)C(=O)OC21c2ccc(O)cc2Oc2cc(O)ccc21)C(N)=O [d-Tat57-49, Fl-ahx-rrrqrrkkr]
- cellular uptake compared with Tat49-57 (Jurkat cells [1]): more effective at entering Jurkat cells then Tat49-57
